{
  "source": "the supplement of paper PMC12317010",
  "experiment": "collision cross section in nitrogen (drift tube, single-field); higher = larger gas-phase ion size",
  "key": {"[1]": {"details": "ion type: [M+H], ion source: APCI, ion mode: Positive"}, "[2]": {"details": "ion type: [M+H], ion source: ESI, ion mode: Positive"}, "[3]": {"details": "ion type: [M+Na], ion source: ESI, ion mode: Positive"}, "[4]": {"details": "ion type: [M-H], ion source: ESI, ion mode: Negative"}},
  "note": "Counter-ions that a name gives are not always drawn.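 Also: chemical standards at 10 µM analysed by drift tube IMS-QTOF MS in about 3.95 torr nitrogen, mean of duplicate injections differing ≤1%, mass error below 10 ppm.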",
  "data": [
    {"smiles": "CCOC(=O)NNc1nncc2ccccc12", "note": "[Todralazine hydrochloride]", "values": [
      {"measurement": "collision cross section in nitrogen", "setting": "[1]", "result": 152, "unit": "Å²"},
      {"measurement": "collision cross section in nitrogen", "setting": "[2]", "result": 151.8, "unit": "Å²"},
      {"measurement": "collision cross section in nitrogen", "setting": "[3]", "result": 158.8, "unit": "Å²"}
    ]},
    {"smiles": "Cc1ccc(S(=O)(=O)NC(=O)NN2CCCCCC2)cc1", "note": "[Tolazamide]", "values": [
      {"measurement": "collision cross section in nitrogen", "setting": "[1]", "result": 175.5, "unit": "Å²"},
      {"measurement": "collision cross section in nitrogen", "setting": "[2]", "result": 175.4, "unit": "Å²"},
      {"measurement": "collision cross section in nitrogen", "setting": "[3]", "result": 183.1, "unit": "Å²"},
      {"measurement": "collision cross section in nitrogen", "setting": "[4]", "result": 178.1, "unit": "Å²"}
    ]},
    {"smiles": "CCCCNC(=O)NS(=O)(=O)c1ccc(C)cc1", "note": "[Tolbutamide]", "values": [
      {"measurement": "collision cross section in nitrogen", "setting": "[3]", "result": 176.6, "unit": "Å²"},
      {"measurement": "collision cross section in nitrogen", "setting": "[4]", "result": 165, "unit": "Å²"}
    ]},
    {"smiles": "Cc1ccc(C(=O)c2cc(O)c(O)c([N+](=O)[O-])c2)cc1", "note": "[Tolcapone]", "values": [
      {"measurement": "collision cross section in nitrogen", "setting": "[4]", "result": 162.8, "unit": "Å²"}
    ]},
    {"smiles": "COP(=S)(OC)Oc1c(Cl)cc(C)cc1Cl", "note": "[Tolclofos-methyl]", "values": [
      {"measurement": "collision cross section in nitrogen", "setting": "[2]", "result": 153.6, "unit": "Å²"},
      {"measurement": "collision cross section in nitrogen", "setting": "[3]", "result": 169.1, "unit": "Å²"}
    ]},
    {"smiles": "Cc1cccc(N(C)C(=S)Oc2ccc3ccccc3c2)c1", "note": "[Tolnaftate]", "values": [
      {"measurement": "collision cross section in nitrogen", "setting": "[1]", "result": 175.5, "unit": "Å²"},
      {"measurement": "collision cross section in nitrogen", "setting": "[2]", "result": 175.4, "unit": "Å²"},
      {"measurement": "collision cross section in nitrogen", "setting": "[3]", "result": 185.4, "unit": "Å²"}
    ]},
    {"smiles": "Cc1ccc(N2C(=O)C=CC2=O)cc1N1C(=O)C=CC1=O", "note": "[Toluene-2,4-dimaleimide]", "values": [
      {"measurement": "collision cross section in nitrogen", "setting": "[1]", "result": 163.3, "unit": "Å²"}
    ]},
    {"smiles": "Cc1ccc(N(SC(F)(Cl)Cl)S(=O)(=O)N(C)C)cc1", "note": "[Tolylfluanid]", "values": [
      {"measurement": "collision cross section in nitrogen", "setting": "[3]", "result": 177.6, "unit": "Å²"}
    ]},
    {"smiles": "CCCc1c(OCCCCc2nnn[nH]2)ccc(C(C)=O)c1O", "note": "[Tomelukast]", "values": [
      {"measurement": "collision cross section in nitrogen", "setting": "[3]", "result": 177.6, "unit": "Å²"}
    ]},
    {"smiles": "CC1(C)O[C@@H]2[C@@H](CO[C@@]3(COS(N)(=O)=O)OC(C)(C)O[C@@H]23)O1", "note": "[Topiramate]", "values": [
      {"measurement": "collision cross section in nitrogen", "setting": "[3]", "result": 171.7, "unit": "Å²"},
      {"measurement": "collision cross section in nitrogen", "setting": "[4]", "result": 174.7, "unit": "Å²"}
    ]},
    {"smiles": "Cc1c(C(=O)c2cnn(C)c2O)ccc(S(C)(=O)=O)c1C1=NOCC1", "note": "[Topramezone]", "values": [
      {"measurement": "collision cross section in nitrogen", "setting": "[3]", "result": 181.1, "unit": "Å²"},
      {"measurement": "collision cross section in nitrogen", "setting": "[4]", "result": 182.9, "unit": "Å²"}
    ]},
    {"smiles": "CCON=C(CC)C1=C(O)CC(c2c(C)cc(C)cc2C)CC1=O", "note": "(stereo not given) [Tralkoxydim]", "values": [
      {"measurement": "collision cross section in nitrogen", "setting": "[1]", "result": 187.3, "unit": "Å²"},
      {"measurement": "collision cross section in nitrogen", "setting": "[2]", "result": 187, "unit": "Å²"},
      {"measurement": "collision cross section in nitrogen", "setting": "[3]", "result": 196.2, "unit": "Å²"},
      {"measurement": "collision cross section in nitrogen", "setting": "[4]", "result": 188.9, "unit": "Å²"}
    ]},
    {"smiles": "N#Cc1c(-c2ccc(Cl)cc2)[nH]c(C(F)(F)F)c1Br", "note": "[Tralopyril]", "values": [
      {"measurement": "collision cross section in nitrogen", "setting": "[4]", "result": 157.9, "unit": "Å²"}
    ]},
    {"smiles": "COc1cccc([C@@]2(O)CCCC[C@@H]2CN(C)C)c1", "note": "[Tramadol]", "values": [
      {"measurement": "collision cross section in nitrogen", "setting": "[1]", "result": 160.6, "unit": "Å²"},
      {"measurement": "collision cross section in nitrogen", "setting": "[2]", "result": 161.1, "unit": "Å²"},
      {"measurement": "collision cross section in nitrogen", "setting": "[3]", "result": 171.7, "unit": "Å²"}
    ]},
    {"smiles": "O=c1n(CCCN2CCN(c3cccc(Cl)c3)CC2)nc2ccccn12", "note": "[Trazodone hydrochloride]", "values": [
      {"measurement": "collision cross section in nitrogen", "setting": "[1]", "result": 192.5, "unit": "Å²"},
      {"measurement": "collision cross section in nitrogen", "setting": "[2]", "result": 192, "unit": "Å²"},
      {"measurement": "collision cross section in nitrogen", "setting": "[3]", "result": 195.7, "unit": "Å²"}
    ]},
    {"smiles": "NC(=O)Cn1c(=O)cc(CCN2CCN(c3nccc4sccc34)CC2)c2ccc(F)cc21", "note": "[Trelanserin]", "values": [
      {"measurement": "collision cross section in nitrogen", "setting": "[1]", "result": 200.1, "unit": "Å²"},
      {"measurement": "collision cross section in nitrogen", "setting": "[2]", "result": 202.8, "unit": "Å²"},
      {"measurement": "collision cross section in nitrogen", "setting": "[3]", "result": 207.9, "unit": "Å²"},
      {"measurement": "collision cross section in nitrogen", "setting": "[4]", "result": 203.8, "unit": "Å²"}
    ]},
    {"smiles": "CCCCCCCCOC(=O)c1ccc(C(=O)OCCCCCCCC)c(C(=O)OCCCCCCCC)c1", "note": "[Tri-n-octyl trimellitate]", "values": [
      {"measurement": "collision cross section in nitrogen", "setting": "[2]", "result": 259, "unit": "Å²"},
      {"measurement": "collision cross section in nitrogen", "setting": "[3]", "result": 263.7, "unit": "Å²"}
    ]},
    {"smiles": "Cc1ccccc1OP(=O)(Oc1ccccc1C)Oc1ccccc1C", "note": "[Tri-o-cresyl phosphate]", "values": [
      {"measurement": "collision cross section in nitrogen", "setting": "[1]", "result": 182.7, "unit": "Å²"},
      {"measurement": "collision cross section in nitrogen", "setting": "[2]", "result": 182.3, "unit": "Å²"},
      {"measurement": "collision cross section in nitrogen", "setting": "[3]", "result": 192.7, "unit": "Å²"}
    ]},
    {"smiles": "CC(C)(C)C(=O)C(Oc1ccc(Cl)cc1)n1cncn1", "note": "(stereo not given) [Triadimefon]", "values": [
      {"measurement": "collision cross section in nitrogen", "setting": "[1]", "result": 174.6, "unit": "Å²"},
      {"measurement": "collision cross section in nitrogen", "setting": "[2]", "result": 173.6, "unit": "Å²"},
      {"measurement": "collision cross section in nitrogen", "setting": "[4]", "result": 167.7, "unit": "Å²"}
    ]}
  ]
}
